Test results reported in the supplement of paper PMC8149375.

Legend:
Conditions in all cases: treatment: drug alone; 5 days
769-P [1] = assay: GI50, drug alone; higher = less potent
Description: (§1)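 Primary HTS: 8 RCC cell lines treated with 8 doses (up to 10 uM) of each library drug alone for 5 days; viability read by CellTiter-Glo and normalised to DMSO. GI50 was fitted with XLfit (4-parameter), AUC is the area under the dose-response curve, and minimum viability is the lowest fraction of DMSO viability across doses.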

786-O [2] = assay: GI50, drug alone; higher = less potent
Description: as §1

A498 [3] = assay: GI50, drug alone; higher = less potent
Description: as §1

ACHN [4] = assay: GI50, drug alone; higher = less potent
Description: as §1

CAKI-1 [5] = assay: GI50, drug alone; higher = less potent
Description: as §1

SN12C [6] = assay: GI50, drug alone; higher = less potent
Description: as §1

TK-10 [7] = assay: GI50, drug alone; higher = less potent
Description: as §1

UO-31 [8] = assay: GI50, drug alone; higher = less potent
Description: as §1

769-P [9] = assay: minimum viability across doses, drug alone, relative to DMSO (fraction); higher = less growth inhibition
Description: as §1

786-O [10] = assay: as above
Description: as §1

A498 [11] = assay: as above
Description: as §1

ACHN [12] = assay: as above
Description: as §1

CAKI-1 [13] = assay: as above
Description: as §1

SN12C [14] = assay: as above
Description: as §1

TK-10 [15] = assay: as above
Description: as §1

UO-31 [16] = assay: as above
Description: as §1

769-P [17] = assay: AUC of dose-response viability curve, drug alone (arbitrary (AUC of normalised viability)); higher = less growth inhibition
Description: as §1

786-O [18] = assay: as above
Description: as §1

A498 [19] = assay: as above
Description: as §1

ACHN [20] = assay: as above
Description: as §1

CAKI-1 [21] = assay: as above
Description: as §1

SN12C [22] = assay: as above
Description: as §1

TK-10 [23] = assay: as above
Description: as §1

UO-31 [24] = assay: as above
Description: as §1

SMILES	GI50, drug alone (786-O [2]) [nM]	GI50, drug alone (ACHN [4]) [nM]	GI50, drug alone (769-P [1]) [nM]	GI50, drug alone (A498 [3]) [nM]	GI50, drug alone (CAKI-1 [5]) [nM]	GI50, drug alone (SN12C [6]) [nM]	GI50, drug alone (TK-10 [7]) [nM]	GI50, drug alone (UO-31 [8]) [nM]	minimum viability across doses (769-P [9])	minimum viability across doses (786-O [10])	minimum viability across doses (A498 [11])	minimum viability across doses (ACHN [12])	minimum viability across doses (CAKI-1 [13])	minimum viability across doses (SN12C [14])	minimum viability across doses (TK-10 [15])	minimum viability across doses (UO-31 [16])	AUC of dose-response viability curve (769-P [17])	AUC of dose-response viability curve (786-O [18])	AUC of dose-response viability curve (A498 [19])	AUC of dose-response viability curve (ACHN [20])	AUC of dose-response viability curve (CAKI-1 [21])	AUC of dose-response viability curve (SN12C [22])	AUC of dose-response viability curve (TK-10 [23])	AUC of dose-response viability curve (UO-31 [24])
CC(C)(C)c1cc(C=C(C#N)C#N)cc(Br)c1O [AG-1024]	> 10000	> 10000	> 10000	> 10000	> 10000	> 10000	> 10000	> 10000	0.853	0.729	1.02	0.904	0.846	0.919	0.791	1.24	3.41	2.78	3.94	3.56	3.65	3.53	3.13	4.79
COc1cc2ncnc(Nc3cccc(Cl)c3)c2cc1OC [AG-1478 (Tyrphostin AG-1478)]	5490	1160	3240	> 10000	> 10000	> 10000	2850	> 10000	0.481	0.179	1.01	0.37	0.628	0.813	0.472	0.795	2.48	2.32	4.85	2.24	2.91	2.95	2.36	4.04
Cc1csc(-c2nnc(Nc3ccc(Oc4ncccc4-c4ccnc(N)n4)cc3)c3ccccc23)c1 [AMG 900]	16.9	171	109	> 10000	672	4570	> 10000	> 10000	0.287	0.0401	0.776	0.231	0.425	0.479	0.561	0.875	1.64	0.822	4.67	1.72	2.02	2.49	2.41	3.73
O=C1NC(=O)[C@@H](c2cn3c4c(cccc24)CCC3)[C@@H]1c1c[nH]c2ccccc12 [ARQ 197 (Tivantinib)]	424	1540	1550	1150	1060	2170	2880	1310	0.0795	0.00526	0.121	0.144	0.201	0.251	0.326	0.0233	2.55	2.06	3	2.63	2.54	2.86	2.77	3.27
Cc1cc2c(C(C)C)c(O)c(O)c(C=O)c2c(O)c1-c1c(C)cc2c(C(C)C)c(O)c(O)c(C=O)c2c1O [AT101]	> 10000	5950	> 10000	> 10000	6050	> 10000	> 10000	> 10000	0.779	0.212	0.836	0.2	0.121	0.741	0.542	0.778	3.66	1.66	3.74	3.02	3.35	3.2	2.36	3.8
O=C(NC1CCNCC1)c1n[nH]cc1NC(=O)c1c(Cl)cccc1Cl [AT7519]	375	946	1910	455	900	431	1040	415	0.0237	0.00447	0.00986	0.00881	0.0613	0.0108	0.182	0.00638	2.78	2.23	2.45	2.35	2.23	2.14	2.32	3.04
Clc1ccc(C2(c3ccc(-c4cn[nH]c4)cc3)CCNCC2)cc1 [AT7867]	1110	2570	6560	7630	4090	5460	3730	249	0.338	0.00712	0.263	0.0705	0.155	0.212	0.0799	0.00617	3.02	2.05	3.49	2.89	2.8	3.13	2.84	2.21
O=C(Nc1c[nH]nc1-c1nc2cc(CN3CCOCC3)ccc2[nH]1)NC1CC1 [AT9283]	100	344	241	777	414	1100	456	250	0.0255	0.00681	0.0125	0.0159	0.0418	0.00789	0.0596	0.00945	1.97	1.58	2.74	1.86	2.22	2.63	2.1	2.05
Cc1ccc(NC(=O)c2cccc(C(C)(C)C#N)c2)cc1Nc1ccc2ncn(C)c(=O)c2c1 [AZ628]	> 10000	2710	> 10000	> 10000	4380	> 10000	4670	4500	0.706	0.719	0.928	0.276	0.239	0.572	0.425	0.101	3.42	3.21	3.97	2.84	3.16	3.3	2.48	3.37
Cc1cc(Nc2nc(N[C@@H](C)c3ccc(F)cc3)c(C#N)cc2F)n[nH]1 [AZ 960]	259	1070	1230	3300	628	1680	1840	789	0.0819	0.00178	0.391	0.129	0.0231	0.252	0.133	0.00541	2.51	1.57	2.86	2.48	2.15	2.5	2.44	2.52
Cn1cnc2c(F)c(Nc3ccc(Br)cc3Cl)c(C(=O)NOCCO)cc21 [AZD6244 (Selumetinib)]	1140	3000	3950	> 10000	1660	> 10000	3050	> 10000	0.381	0.371	0.59	0.371	0.23	0.664	0.419	0.728	2.75	2.41	3.06	2.59	2.51	2.88	2.45	4

The next lines start with results.

GI50, drug alone (786-O [2]) [nM]	GI50, drug alone (ACHN [4]) [nM]	SMILES	GI50, drug alone (769-P [1]) [nM]	GI50, drug alone (A498 [3]) [nM]	GI50, drug alone (CAKI-1 [5]) [nM]	GI50, drug alone (SN12C [6]) [nM]	GI50, drug alone (TK-10 [7]) [nM]	GI50, drug alone (UO-31 [8]) [nM]	minimum viability across doses (769-P [9])	minimum viability across doses (786-O [10])	minimum viability across doses (A498 [11])	minimum viability across doses (ACHN [12])	minimum viability across doses (CAKI-1 [13])	minimum viability across doses (SN12C [14])	minimum viability across doses (TK-10 [15])	minimum viability across doses (UO-31 [16])	AUC of dose-response viability curve (769-P [17])	AUC of dose-response viability curve (786-O [18])	AUC of dose-response viability curve (A498 [19])	AUC of dose-response viability curve (ACHN [20])	AUC of dose-response viability curve (CAKI-1 [21])	AUC of dose-response viability curve (SN12C [22])	AUC of dose-response viability curve (TK-10 [23])	AUC of dose-response viability curve (UO-31 [24])
4550	4790	COc1ccc2c(Oc3ccc(NC(=O)c4c(C)n(CC(C)(C)O)n(-c5ccccc5)c4=O)nc3)ccnc2c1 [AMG458]	> 10000	> 10000	8650	> 10000	> 10000	> 10000	0.971	0.25	0.859	0.262	0.449	0.71	0.66	0.597	3.55	2.82	3.66	3.03	3.32	3.13	3.29	3.98
> 10000	> 10000	COc1ccc2c(OCc3nnc4ccc(-c5ccccc5)nn34)ccnc2c1 [AMG-208]	> 10000	> 10000	> 10000	> 10000	> 10000	> 10000	0.879	0.869	1.15	0.888	0.678	0.912	0.804	1.25	3.41	3.53	4.38	3.47	2.66	3.4	3.11	4.94
2380	3110	C=CC(=O)Nc1ccc2ncnc(Nc3ccc(OCc4cccc(F)c4)c(Cl)c3)c2c1.Cc1ccc(S(=O)(=O)O)cc1 [AST-1306]	1720	> 10000	3350	4970	884	> 10000	0.048	0.0947	0.922	0.315	0.174	0.188	0.109	1.05	2.61	2.59	3.99	2.9	2.76	3.03	2.33	4.13
23.6	120	CNC(=O)c1cccc(-c2ccc3c(N4CCOC[C@@H]4C)nc(N4CCOC[C@@H]4C)nc3n2)c1 [AZD2014]	573	936	246	364	145	135	0.0959	0.0673	0.229	0.0767	0.0604	0.177	0.108	0.0166	2.29	1.18	2.91	1.61	1.86	2.12	1.67	1.88
7220	2380	COc1cc(CCc2cc(NC(=O)c3ccc(N4C[C@@H](C)N[C@@H](C)C4)cc3)n[nH]2)cc(OC)c1 [AZD4547]	> 10000	> 10000	1600	5180	9570	9970	0.9	0.202	0.877	0.165	0.222	0.256	0.51	0.68	3.57	3.17	3.96	2.69	2.59	3.1	3.11	5.09
186	654	Cc1ncc(-c2ccnc(Nc3ccc(S(C)(=O)=O)cc3)n2)n1C(C)C [AZD5438]	910	1230	1640	1480	759	258	0.0207	0.00317	0.00858	0.0146	0.131	0.0183	0.142	0.00721	2.6	1.66	2.44	2.39	2.97	2.45	2.49	2.19
34	17.3	NC(=O)Nc1cc(-c2cccc(F)c2)sc1C(=O)N[C@H]1CCCNC1 [AZD7762]	175	308	156	408	68.5	81.8	0.0526	0.00636	0.0492	0.0318	0.00629	0.00737	0.0208	0.00565	1.82	1.1	2.53	0.873	1.78	2.07	1.39	2.1
